Data reported in paper PMC4207540 (Journal of Medicinal Chemistry, 2014).

Tested on: BT-142 glioma cells
Test: not given
Details: not given

Row | SMILES | selectivity for BT-142 over glioma cells without IDH1 mutation (BXD-4687, -3752) [fold]
1 | COc1ccc(-c2ccc(Cc3cc(C)cc(=O)n3O)cc2)cc1 [Compound 58] | > 10

Target: IDH1(R132H) (Homo sapiens, UniProt O75874, R132H)
Test: not given
Details: not given

Sequence of IDH1(R132H) (O75874 whole entry R132H): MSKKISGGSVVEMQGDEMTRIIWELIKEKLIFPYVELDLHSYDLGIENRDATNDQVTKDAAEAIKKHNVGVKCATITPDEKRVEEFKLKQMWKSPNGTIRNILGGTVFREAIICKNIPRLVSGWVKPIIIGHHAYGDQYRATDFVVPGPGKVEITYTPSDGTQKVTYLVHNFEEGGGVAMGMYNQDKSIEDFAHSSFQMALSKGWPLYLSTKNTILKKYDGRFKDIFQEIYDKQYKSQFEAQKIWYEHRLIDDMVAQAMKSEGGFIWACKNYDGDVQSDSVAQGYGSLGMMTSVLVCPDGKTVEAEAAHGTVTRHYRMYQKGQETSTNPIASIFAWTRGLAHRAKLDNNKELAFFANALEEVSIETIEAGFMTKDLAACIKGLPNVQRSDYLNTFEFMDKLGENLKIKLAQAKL

Row | SMILES | inhibitory activity against IDH1(R132H), in words
2 | O=c1ccc(-c2ccccc2)cn1O [Compound 5] | very weak activity
3 | Cc1cc(C2CCCCC2)n(O)c(=O)c1 [Compound 9, Ciclopirox, reference compound] | inactive
4 | O=c1ccc(CCc2ccccc2)cn1O [Compound 10] | lose the inhibitory activity
5 | O=c1ccc(CCCc2ccccc2)cn1O [Compound 11] | lose the inhibitory activity
6 | O=c1cccc(-c2ccccc2)n1O [Compound 15] | inactive
7 | CC(c1ccccc1)c1cccc(=O)n1O (stereo not drawn) [Compound 16] | inactive
8 | Cc1cc(C)n(O)c(=O)c1 [Compound 20] | inactive
9 | O=c1ccc(Cc2ccccc2)c[nH]1 [Compound 21] | lack of activity
10 | O=c1ccn(O)c(=O)n1Cc1ccccc1 [Compound 25] | lack of activity
11 | O=c1n(O)ccn1Cc1ccccc1 [Compound 26] | lack of activity
12 | Cc1cc(Cc2ccccc2)oc(=O)c1 [Compound 28] | inactive
13 | Cc1cc(Cc2ccccc2)oc(=S)c1 [Compound 29] | inactive

Same assay, conditions: relative to compound 2

Row | SMILES | fold less active than compound 2 against IDH1(R132H) [fold]
14 | Cc1cc(COc2ccccc2)n(O)c(=O)c1 [Compound 19] | ~4
15 | Cc1cc(Cc2ccccc2)n(N)c(=O)c1 [Compound 27] | 20
16 | Cc1ccn(O)c(=O)c1Cc1ccccc1 [Compound 30] | 50
17 | COc1ccccc1Cc1cc(C)cc(=O)n1O [Compound 41] | ~2
18 | Cc1cc(Cc2ccccc2O)n(O)c(=O)c1 [Compound 42] | ~2
19 | Cc1cc(Cc2cccc(F)c2)n(O)c(=O)c1 [Compound 43] | ~10
20 | Cc1cc(Cc2c(F)c(F)c(F)c(F)c2F)n(O)c(=O)c1 [Compound 44] | ~10

Target: T1, WT IDH1 (Homo sapiens, UniProt O75874)
T1 sequence (O75874 whole entry): as the sequence (O75874 whole entry R132H) above, with H132R counted along it
Test: biochemical
Details: not given

Row | SMILES | Ki [µM]
21 | O=c1cc(O)cc(Cc2ccccc2)n1O [Compound 34] | > 30

Tested on: breast cancer and leukemia cells
Test: not given
Details: cited from earlier work

Row | SMILES | antiproliferative activity
22 | Cc1cc(C2CCCCC2)n(O)c(=O)c1 [Compound 9, Ciclopirox, reference compound] | low micromolar

Tested on: WI-38 fibroblast cells
Test: Cytotoxicity assay
Format: cell-based
Details: not given

Row | SMILES | activity against WI-38, in words
23 | Cc1ccccc1C(C(=O)NC1CCCCC1)N(C(=O)Cn1ccnc1C)c1cccc(F)c1 (stereo not drawn) [Compound 1] | no activity

Same assay, conditions: Homo sapiens, WI-38, 48 h, read-out: EC50 against WI-38

Row | SMILES | EC50 [µM]
24 | Cc1cc(Cc2ccccc2)n(O)c(=O)c1 [Compound 2] | > 50

Tested on: BXD-4687
Test: not given
Format: cell-based, human
Details: not given

Row | SMILES | activity against BXD-4687, in words
25 | Cc1ccccc1C(C(=O)NC1CCCCC1)N(C(=O)Cn1ccnc1C)c1cccc(F)c1 (stereo not drawn) [Compound 1] | no activity

Target: T1, WT IDH1
Test: not given
Details: not given

Row | SMILES | inhibitory activity against WT IDH1, in words
26 | O=c1cccc(Cc2ccccc2)n1O [Compound 7] | do not inhibit the enzyme
27 | CC(C)c1cc(Cc2ccccc2)n(O)c(=O)c1 [Compound 33] | do not inhibit the enzyme
28 | O=c1cc(O)cc(Cc2ccccc2)n1O [Compound 34] | do not inhibit the enzyme
29 | COc1cccc(Cc2cc(C)cc(=O)n2O)c1 [Compound 39] | do not inhibit the enzyme
30 | Cc1cc(Cc2cccc(O)c2)n(O)c(=O)c1 [Compound 40] | do not inhibit the enzyme

Tested on: BXD-3752
Test: not given
Format: cell-based, human
Details: not given

Row | SMILES | activity against BXD-3752, in words
31 | Cc1ccccc1C(C(=O)NC1CCCCC1)N(C(=O)Cn1ccnc1C)c1cccc(F)c1 (stereo not drawn) [Compound 1] | no activity

Tested on: HT1080 cells
Test: D2HG production inhibition in HT1080 cells
Details: Homo sapiens, HT-1080, 48 h, read-out: IC50 for inhibition of D2HG

Row | SMILES | IC50 [µM]
32 | CC(C)c1cc(Cc2ccccc2)n(O)c(=O)c1 [Compound 33] | > 30
33 | O=c1cc(O)cc(Cc2ccccc2)n1O [Compound 34] | 9.7 ± 1.8
